According to patent US7612045B2, “Compounds, compositions and methods for controlling biofilms and bacterial infections” (Sequoia Sciences, Inc., priority 2005, dated 2009):
Read-outs that look alike come from different tables or passages of the source.

Columns and labels:
Pseudomonas aeruginosa = test: Microtiter plate biofilm formation assay (crystal violet), Pseudomonas aeruginosa; assay type: cell-based; settings: read-out: % Biofilm Inhibition of Pseudomonas Aeruginosa
Experimental: In this example, a concentrated solution of each compound tested was loaded separately into three separate wells of a polystyrene microtiter plate. In addition, each assay included triplicate wells correlating to negative and positive controls. […] Next, 150 μl of sterile media was added to each well (LB media with 0.2% glucose)—followed by 50 μl of the appropriate bacterial inoculum. Thus, each well contained a final volume of approximately 200 μl (not including the volume of the concentrated inhibitor). The final concentration of each biofilm inhibitor tested in the assay was 10 μg/ml. The microtiter plates were then placed on a shaker for approximately 20 to 24 hours at room temperature. After the incubation period, the microtiter plate was removed from the shaker, rinsed, and stained. During the rinsing step, the test compound, media, and bacterial inoculum solution was drained from the plate, approximately 300 μL of 0.1M phosphate buffered saline (PBS) was added to each well, which was subsequently drained from the plate. The rinsing step removed any suspended cells from the assay. An 0.1% crystal violet stain was added to each well for approximately 20 minutes. Next, the crystal violet solution was drained from the microtiter plate. The plate was rinsed with PBS as described above four (4) times to remove any excess stain from the plate. Following the PBS rinsing steps, the plate was eluted with 250 μL/well of ethanol, which improved the detection of the stain. The plate was immediately analyzed spectrophotometrically at 540 nm using a microtiter plate reader.
The average O.D. for each test compound was compared to the average O.D. of the negative control (the positive control was employed to verify proper assay function).

[1] = tested on: E. coli clinical strain UTI89; test: Biofilm formation of E. coli clinical strain UTI89 in 96 well plates (crystal violet); assay type: cell-based; settings: Escherichia coli, 24 h, one day, read-out: inhibition of biofilm formation of the UTI89 strain as compared to the controls; for inhibition at 32 µg/mL: 32 ug/ml; for inhibition at 8 µg/mL: 8 ug/ml; for inhibition at 16 µg/mL: 16 ug/ml
Experimental: Biofilm inhibition experiments were conducted using an assay adapted from the reported protocol described in Pratt and Kolter, 1998, Molecular Microbiology, 30: 285-293; Li et al., 2001, J. Bacteriol., 183: 897-908. E. coli clinical strain UTI89 was grown in LB in 96 well plates at room temperature for one day without shaking. To quantify the biofilm mass, the suspension culture was poured out and the biofilm was washed three times with water. The biofilm was stained with 0.1% crystal violet for 20 minutes. The plates were then washed three times with water. Then 95% ethanol was added to dissolve the dye at the bottom and on the wall and the OD reading at 540 nm was measured to quantify the total biofilm mass. Test compounds were added with the inoculation and biofilm mass was measured after one day as described above appropriate amounts of 100% ethanol were added to each sample to eliminate the effect of solvent. Each condition had 4 to 8 replicates on each plate and was performed over multiple days.

Escherichia coli = test: Microtiter plate biofilm formation assay (crystal violet), Escherichia coli; assay type: cell-based; settings: read-out: % Biofilm Inhibition of E. coli
S. salivaris = settings: data of the '911 patent; cited from earlier work
P. aeruginosa = settings: data of the '911 patent; cited from earlier work
S. aureus = settings: data of the '911 patent; cited from earlier work
E. coli = settings: data of the '911 patent; cited from earlier work
S. mutans = settings: data of the '911 patent; cited from earlier work
bacterial growth = test: Bacterial growth inhibition studies; assay type: cell-based
[2] = tested on: methicillin-resistant Staphylococcus aureus; settings: cited from earlier work
[3] = 10 μg/ml, 20 to 24 hours at room temperature, O.D. 540 nm vs negative control
[4] = 10 μg/ml, same microtiter assay

## C[C@@H]1[C@H]2C3=CC[C@@H]4[C@@]5(C)CC[C@H](OC(=O)/C=C\c6ccc(O)cc6)C(C)(C)[C@@H]5CC[C@@]4(C)[C@]3(C)CC[C@@]2(C(=O)O)CC[C@]1(C)O (relative stereo) [Compound 188, 3-[4-Hydroxycinnamoyl(cis-)], 20-hydroxy-ursolic acid]
Pseudomonas aeruginosa; [3]
  inhibition at 10 µg/mL: 62%

## CO[C@H]1C[C@@]2(C)C(CC[C@]3(C)C2CC=C2C4[C@@H](C)[C@H](C)CC[C@]4(C(=O)O)CC[C@]23C)C(C)(C)[C@@H]1OC(=O)/C=C/c1ccccc1 (stereo partly drawn) [2β-methoxy-3α-cinnamoyl-12-ursen-28-oic acid]
[1]
  inhibition at 32 µg/mL: ~40%

## C[C@@H]1CC[C@]2(C(=O)O)CC[C@]3(C)C(=CCC4[C@@]5(C)CC[C@H](OC(=O)OC(C)(C)C)C(C)(C)C5CC[C@]43C)C2[C@H]1C (stereo partly drawn) [3β-O-tert-butyloxycarbonyl-ursolic acid]
[1]
  inhibition at 32 µg/mL: ~46%

## C[C@H]1[C@H](CO)CC[C@]2(C(=O)O)CC[C@]3(C)C(=CCC4[C@@]5(C)CC[C@H](O)C(C)(C)C5CC[C@]43C)[C@H]12 (some centres unmarked) [Compound 99, 30-hydroxyursolic acid]
Pseudomonas aeruginosa; [3]
  inhibition at 10 µg/mL: 30%

## CC1(C)CC[C@]2(C(=O)O)CCC3(C)C(=CCC4C5(C)C[C@@H](O)[C@H](O)C(C)(C)C5CCC43C)[C@@H]2C1 (some centres unmarked) [Compound 107, 2-hydroxyoleanic acid]
Pseudomonas aeruginosa
  inhibition at 10 µg/mL: 46%

## C[C@@H]1CC[C@]2(C(=O)O)CCC3(C)C(=CCC4C5(C)C[C@@H](O)[C@H](O)C(C)(C)C5CCC43C)C2[C@H]1C (stereo partly drawn) [Compound 108, 2α,3β-dihydroxy-12-ursen-28-oic acid]
[1]; 20 ug/ml
  inhibition at 20 µg/mL: ~85%
Escherichia coli; [4]
  inhibition at 10 µg/mL: 74%
Pseudomonas aeruginosa; [3]
  inhibition at 10 µg/mL: 52%

## C[C@H]1[C@H](C)CC[C@]2(C(=O)O)CC[C@]3(C)C(=CC[C@@H]4[C@@]5(C)CC[C@H](O)C(C)(C)[C@@H]5CC[C@]43C)[C@H]12 [Compound 110, Ursolic Acid]
S. salivaris
  Growth inhibition of S. salivaris: completely inhibited
P. aeruginosa
  Growth inhibition of P. aeruginosa: failed to inhibit
S. aureus
  Growth inhibition of S. aureus: failed to inhibit
Escherichia coli; [4]
  inhibition at 10 µg/mL: 80%
E. coli
  Growth inhibition of E. coli: failed to inhibit
S. mutans
  Growth inhibition of S. mutans: completely inhibited

## C[C@H]1[C@H](C)CC[C@]2(C(=O)O)CC[C@]3(C)C(=CCC4[C@@]5(C)C[C@@H](O)[C@H](OC(=O)/C=C/c6ccc(O)cc6)C(C)(C)C5CC[C@]43C)[C@H]12 (stereo partly drawn) [Compound 189, 3-[4-hydroxycinnamoyl(trans-)]-2-hydroxyursolic acid]
Pseudomonas aeruginosa; [3]
  inhibition at 10 µg/mL: 35%

## CC1CCC2(C(=O)O)CCC3(C)C(=CCC4C5(C)CC(O)C(O)C(C)(C)C5CCC43C)C2C1(C)O (centres unmarked) [Compound 192, Euscaphic Acid]
Pseudomonas aeruginosa; [3]
  inhibition at 10 µg/mL: 32%

## C[C@@H]1[C@H]2C3=CCC4[C@@]5(C)CC[C@H](O)C(C)(C)C5CC[C@@]4(C)[C@]3(C)CC[C@@]2(C(=O)O)CC[C@]1(C)O (some centres unmarked) [Compound 195, 20B-hydroxyursolic acid]
Pseudomonas aeruginosa; [3]
  inhibition at 10 µg/mL: 25%

## C[C@@H]1CC[C@]2(C(=O)O)CC[C@]3(C)C(=CCC4[C@@]5(C)C[C@@H](O)[C@H](O)C(C)(C)C5CC[C@]43C)[C@@H]2[C@]1(C)O (some centres unmarked) [Compound 203, Tormentic Acid]
Pseudomonas aeruginosa; [3]
  inhibition at 10 µg/mL: 43%

## CC1(C)CC[C@]2(C(=O)O)CC[C@]3(C)C(=CC[C@@H]4[C@@]5(C)CC[C@H](O)C(C)(C)[C@@H]5CC[C@]43C)[C@@H]2C1 [Compound 225, Oleanolic Acid]
S. salivaris
  Growth inhibition of S. salivaris: incomplete inhibition
P. aeruginosa
  Growth inhibition of P. aeruginosa: failed to inhibit
S. aureus
  Growth inhibition of S. aureus: failed to inhibit
Escherichia coli; [4]
  inhibition at 10 µg/mL: 35%
E. coli
  Growth inhibition of E. coli: failed to inhibit
Pseudomonas aeruginosa; [3]
  inhibition at 10 µg/mL: 35%
S. mutans
  Growth inhibition of S. mutans: incomplete inhibition

## C[C@@H]1CCC2(C(=O)O)CC[C@]3(C)C(=CCC4[C@@]5(C)C[C@@H](O)[C@H](O)[C@@](C)(CO)C5CC[C@]43C)C2[C@H]1C (some centres unmarked) [Compound 255, Asiatic Acid]
Bacterial growth
  direct anti-bacterial activity: do not display direct anti-bacterial activity
Escherichia coli; [4]
  inhibition at 10 µg/mL: 75%

## C[C@H]1[C@H](C)CC[C@]2(C(=O)O)CC[C@]3(C)C(=CC[C@@H]4[C@@]5(C)C[C@@H](O)[C@H](O)[C@@](C)(CO)[C@@H]5[C@H](O)C[C@]43C)[C@H]12 [Compound 314, Madecassic Acid]
Bacterial growth
  direct anti-bacterial activity: do not display direct anti-bacterial activity

## CC1(C)CC[C@@]2(C(=O)O)C(O)C[C@]3(C)C(=CCC4[C@@]5(C)CC[C@H](O)[C@@](C)(CO)C5CC[C@]43C)C2C1 (some centres unmarked) [Compound 323, Caulophyllogenin]
Escherichia coli; [4]
  inhibition at 10 µg/mL: 35%

## CO[C@H]1C[C@@]2(C)C(CC[C@]3(C)C2CC=C2C4[C@@H](C)[C@H](C)CCC4(C(=O)O)CC[C@]23C)C(C)(C)[C@@H]1O (stereo partly drawn) [Compound 410, 2β-methoxy-3α-hydroxy-12-ursen-28-oic acid]
[1]
  inhibition at 32 µg/mL: ~38%

## C=C1CCC2(C(=O)O)CCC3(C)C(=CCC4C5(C)CCC(O)C(C)(C)C5CCC43C)C2C1C (centres unmarked) [Compound 430, 3-hydroxy-12,20(30) ursadien-28-oic acid]
Escherichia coli
  inhibition at 10 µg/mL: 60%

## C[C@@H]1CC[C@]2(C(=O)O)CCC3(C)C(=CCC4C5(C)C[C@H](O)[C@@H](O)C(C)(C)C5CCC43C)C2[C@H]1C (stereo partly drawn) [Compound 431, 2β,3α-dihydroxy-12-ursen-28-oic acid]
[1]
  inhibition at 32 µg/mL: ~62%

## CC1(C)CC[C@]2(C(=O)O)[C@H](O)C[C@]3(C)C(=CC[C@@H]4[C@@]5(C)CC[C@H](O)C(C)(C)[C@@H]5CC[C@]43C)[C@@H]2C1 [Compound 455, 3β,16α-dihydroxyolean-12-en-28-oic acid]
[1]
  inhibition at 8 µg/mL: ~27%
  inhibition at 16 µg/mL: ~50%
  inhibition at 32 µg/mL: ~80%

## C[C@@H]1CC[C@]2(C(=O)O)CC[C@]3(C)C(=CCC4[C@@]5(C)C[C@@H](O)[C@@H](O)[C@](C)(CO)C5CC[C@]43C)C2[C@H]1C (stereo partly drawn) [Compound 457, 2α,3α,24-trihydroxy-12-ursen-28-oic acid]
[1]
  inhibition at 8 µg/mL: ~50%
  inhibition at 16 µg/mL: ~53%
  inhibition at 32 µg/mL: ~80%

## C[C@@H]1CC[C@]2(C(=O)O)CC[C@]3(C)C(=CCC4[C@]5(C)C(CC[C@]43C)[C@@](C)(CO)[C@H](O)[C@H](O)[C@H]5O)C2[C@H]1C (stereo partly drawn) [Compound 458, 1β,2α,3α,24-tetrahydroxy-12-ursen-28-oic acid]
[1]
  inhibition at 32 µg/mL: ~45%

## CO[C@H]1/C=C/O[C@@]2(C)Oc3c(C)c(O)c4c(O)c(c(/C=N/N5CCN(C)CC5)c(O)c4c3C2=O)NC(=O)/C(C)=C\C=C\[C@H](C)[C@H](O)[C@@H](C)[C@@H](O)[C@@H](C)[C@H](OC(C)=O)[C@@H]1C [rifampin]
[2]; biofilm, urinary catheters
  Eradication of MRSA in a biofilm: unable to eradicate
[2]; planktonic cells
  Activity against MRSA planktonic, or suspended cells: effective
